Columns and labels:
Assay type in all cases: in vivo
[1] = tested on: obesity induced mice with high fat diet; test: Autopsy and blood biochemistry examination in high fat diet mice; details: serum, day 49, 16 h fasted, compared to HFD or GC group (FIG. 9)
Description: (§1) From the time of arrival, all animals underwent a 6-week induction period, including a one-week acclimation period. The mice were divided into normal diet (negative control) and high fat diet (positive control and experiment group) and each fed, while given feed and water ad libitum for 6 weeks from the day of division (day 0). The CJLS03 according to the present disclosure was grouped according to concentrations (low: 10^8 CFU, medium: 10^9 CFU, high: 10^10 CFU). To measure accurate efficacy, a commercially available FDA-approved anti-obesity drug Orlistat (Product name: Zenical), and a health function food Garcinia cambogia were added as experiment groups in addition to the normal diet control group and high fat diet group, and compared with the anti-obesity function of the lactic acid bacterial.
For administration, the lactic acid bacteria were homogeneously suspended in PBS and administered in a 10 mL/kg of administration volume twice daily at determined times (10:00 A.M. to 11:00 A.M., 5:00 P.M. to 6:00 P.M.) for 7 weeks, while the control groups were orally administered with the same amount of solvent vehicle (PBS) twice daily for 7 weeks. Experimental substances were newly prepared and administered into the A.M. and P.M.-administered strain. All strains were stored under refrigeration so as to retain the active condition thereof, and the PBS which was refrigerated was used for washing strain samples and preparing solutions. The experimental animal of each group was fasted for 16 hours and sacrificed on the termination day of experiment (day 49) to be used for blood biochemistry tests and histological evaluation analysis.
On the day of termination of the experiment according to Example 4-1 (day 49), the experimental animals were sacrificed after stopping their diets for 16 hours and autopsied. All of the experimental animals were subjected to collection of about 500 μL to 700 μL of blood using a heparin-free capillary tube of plexus venosus under an ether inhalation anesthesia. The collected blood was put in an SST tube and coagulated for 30 minutes to 1 hour at room temperature. The blood was then centrifuged at 4° C. and 4000 rpm for 10 minutes to separate the serum followed by storing at −80° C. until the analysis. The amounts of glucose (GLU), triglyceride (TG), total cholesterol (TC), low-density lipoprotein cholesterol (LDL), high-density lipoprotein cholesterol (HDL), glutamate oxaloacetate transaminase (GOT; AST), glutamate pyruvate transaminase (GPT; ALT), CREA (creatinine), and lactate dehydrogenase (LDH) in the separated serum were measured using a blood biochemistry (Accute TBA-40FR, Toshiba Medical System Co., Japan).

[2] = tested on: obesity induced mice with high fat diet; test: Measurement of organ fat weight in high fat diet mice; details: compared with HFD group (FIGS. 10 and 11)
Description: (§2) From the time of arrival, all animals underwent a 6-week induction period, including a one-week acclimation period. The mice were divided into normal diet (negative control) and high fat diet (positive control and experiment group) and each fed, while given feed and water ad libitum for 6 weeks from the day of division (day 0). The CJLS03 according to the present disclosure was grouped according to concentrations (low: 10^8 CFU, medium: 10^9 CFU, high: 10^10 CFU). […]
(§3) For administration, the lactic acid bacteria were homogeneously suspended in PBS and administered in a 10 mL/kg of administration volume twice daily at determined times (10:00 A.M. to 11:00 A.M., 5:00 P.M. to 6:00 P.M.) for 7 weeks, while the control groups were orally administered with the same amount of solvent vehicle (PBS) twice daily for 7 weeks. […]
After blood was collected, the visceral examination was carried out to confirm the presence of abnormalities in the internal organs, and the adipose tissues (epididymal fat, subcutaneous fat, mesenteric fat) were extracted. […] The weight of each adipose tissue was measured with an electronic balance. Additionally, the relative tissue weight per 100 g of body weight was calculated based on the body weight fasted before autopsy (calculation formula: relative organ weight (%)=organ weight (g)/fasting body weight before autopsy (g)×100). […]

[3] = tested on: obesity induced mice with high fat diet; test: Histological evaluation of liver tissue (H & E) in high fat diet mice; details: H & E stained liver sections; CJLS03 high concentration group (FIG. 12)
Description: as §1
as §3, with “weeks. Experimental substances were newly prepared and administered into the A.M. and P.M.-administered strain.” for “weeks.”
Liver tissues of the ND, HFD, OLS, GC, and high CJLS03 concentration groups were histologically evaluated. […]

[4] = tested on: obesity induced mice with high fat diet; test: Measurement of size of adipocytes in high fat diet mice; details: compared to HFD and GC groups; CJLS03 high concentration group (FIG. 13)
Description: as §2, §3
Measuring the size of adipocytes is well known as an effective method capable of proving the anti-obesity efficacy. […] The adipocyte photos were analyzed using the Scion image program (derived from NIH Image) by calculating an average value of two adipocyte sizes. […]

## CCCCCCCCCCC[C@@H](C[C@@H]1OC(=O)[C@H]1CCCCCC)OC(=O)[C@H](CC(C)C)NC=O [OLS, Orlistat]
[1]
  concentration of blood HDL: significantly reduce
  concentration of blood LDL: significantly reduce
  concentration of blood TC (total cholesterol): significantly reduce
  concentration of blood glucose: significantly reduce
[2]; body weight after 16 h fasting before autopsy
  fasting weight: lower than those of the HFD group
[2]; epididymal, subcutaneous, mesenteric fat
  adipose tissue weights: lower than those of the HFD group
[3]
  lipid particles in liver tissue: rarely found
[4]
  sizes of the adipocytes: significantly reduced

Source: patent publication US20190262409A1, “NOVEL LACTOBACILLUS SAKEI AND COMPOSITION COMPRISING THE SAME” (CJ Cheiljedang Corporation, priority 2016, published 2019)
